Experimental data taken from PubChem BioAssay AID2060361 (Molecular Pharmacology Branch, DTP, NCI, 2025).

Test system: 463943-066-T-J2-PDC tumor spheroids with HUVEC/MSC, viability
Test: Anticancer human tumor 463943-066-T-J2-PDC patient-derived colon adenocarcinoma cell line growth inhibition [TAK]
Conditions: for IC50: curve of first compound; for viability, T/C: stronger effect = lower value
Excerpt: Combinatorial screen of targeted agents with TAK-243 and ipatasertib in multi-cell type tumor spheroids
A high-throughput screen of multi-cell type tumor spheroids was designed to identify active combinations of targeted small molecules and TAK-243 or ipatasertib. Complex spheroids include a stromal component modeled by human endothelial cells (HUVEC) and fibroblasts modeled by human mesenchymal stem cells (MSCs). The concentration ranges selected for each drug and investigational agent were based upon clinically achievable concentrations if the clinical Cmax of the agent was known.
Compounds. The drugs and investigational agents: TAK-243 (785004), ipatasertib (767898), everolimus (733504), selumetinib (741078), bortezomib (756655), trametinib (758246), ixazomib (758254), vemurafenib (761431), dabrafenib (764134), sapanisertib (764658), alpelisib (765974), and copanlisib (816437), were obtained from the National Cancer Institute (NCI) Developmental Therapeutics Program Chemical Repository. The FDA-approved anticancer drug set is available from the NCI Developmental Therapeutics Program. […] The stock solutions were prepared in dimethyl sulfoxide (DMSO, Sigma-Aldrich, St. Louis, MO, cat. D2650) at 800-fold the tested concentration and stored at -70 degrees C prior to their use. All drugs and investigational agents were tested over a range starting from a high concentration at or near the clinical Cmax and decreasing in half-log increments. If the clinical Cmax for an agent had not been determined, the highest concentration tested was 10 microM.
NCI60 Cell Culture. NCI60 cell lines were obtained from the NCI Developmental Therapeutics Program Tumor Repository. For each lot of cells, the Repository performed Applied Biosystems AmpFLSTR Identifiler testing with PCR amplification to confirm consistency with the published Identifier STR profile for each cell line. Cells were kept in continuous culture for no more than 20 passages. The optimal seeding densities for each of the cell lines at each time point assessed were determined prior to performing the concentration response studies. Briefly, the NCI60 human tumor lines were grown as monolayers in RPMI 1640 medium supplemented with 10% FBS and 2 mmol/L L-glutamine.
An additional 2 lines were from the NCI60 cell line panel including melanomas, MALME-3M and SK-MEL-2. Pooled donor human umbilical vein endothelial cells (HUVEC, Lonza, cat. CC-2519) and human mesenchymal stem cells (hMSC, Lonza, cat. PT-2501) were purchased from Lonza (Walkersville, MD).
PDMR cell lines were grown in complete medium (DC medium): Dulbecco's modified Eagle's medium (DMEM)/F12 supplemented with 5% fetal bovine serum (FBS), 2 mM L-glutamine, 100 U/mL penicillin and 100 µg/ml streptomycin, 0.4 µg/ml hydrocortisone, 10 ng/ml epidermal growth factor (EGF) recombinant human protein, 24 µg/mL adenine, and 0.1 mg/mL primocin. During culture from frozen stock vials, PDMR cells were cultured in the same medium containing 10 µM Y-27632 (see Table 3). The PDCs were cultured in complete DMEM/F12 media without 10 microM Y-27632 dihydrochloride for at least two passages prior to the screen. The pooled donor HUVEC and hMSC were cultured in endothelial cell growth medium 2 (PromoCell, Heidelberg, Germany, cat. C-22011) and mesenchymal stem cell growth medium 2 (PromoCell, cat. C-28009), respectively. For all experiments, HUVEC and hMSC were used at passages </=5.
For the pre-screen, cell seeding densities were determined from a titration spanning the range from 5,000 to 313 cells per well. The mct-spheroids including 60% malignant cells, 25% HUVEC and 15% MSC dispensed as a mixture into U-bottom Ultra-Low Attachment 384-well plates (Corning, NY)
High-throughput Drug Combination Screening.
Prior to their inoculation into 384-well plates, malignant cells, HUVEC, and hMSC were removed from T flasks using TrypLE express (Thermo Fisher Scientific, cat. 12605036) and harvested by centrifugation for 5 min at 233 x g. […]
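Further: spheroids exposed to drugs for seven days.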
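Wherever viability, T/C is given: 100% = DMSO vehicle control wells.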

CC(=O)Nc1cccc(-n2c(=O)n(C3CC3)c(=O)c3c(Nc4ccc(I)cc4F)n(C)c(=O)c(C)c32)c1 + CC(C)NCC(C(=O)N1CCN(c2ncnc3c2C(C)CC3O)CC1)c1ccc(Cl)cc1
IC50 (second compound 0.3 µM): > 30 nM
IC50 (second compound 0.949 µM): > 30 nM
IC50 (second compound 3 µM): > 30 nM
IC50 (second compound 9.49 µM): > 30 nM
IC50 (second compound 30 µM): > 30 nM
viability, T/C (second compound 0.3 µM, first compound 94.9 pM): 98.7%
viability, T/C (second compound 0.3 µM, first compound 0.0003 µM): 94.3%
viability, T/C (second compound 0.3 µM, first compound 0.000949 µM): 83.2%
viability, T/C (second compound 0.3 µM, first compound 0.003 µM): 82.2%
viability, T/C (second compound 0.3 µM, first compound 0.00949 µM): 71.5%
viability, T/C (second compound 0.3 µM, first compound 0.03 µM): 65.2%
viability, T/C (second compound 0.949 µM, first compound 94.9 pM): 95.2%
viability, T/C (second compound 0.949 µM, first compound 0.0003 µM): 91.5%
viability, T/C (second compound 0.949 µM, first compound 0.000949 µM): 84.1%
viability, T/C (second compound 0.949 µM, first compound 0.003 µM): 83.9%
viability, T/C (second compound 0.949 µM, first compound 0.00949 µM): 77.2%
viability, T/C (second compound 0.949 µM, first compound 0.03 µM): 61.2%
viability, T/C (second compound 3 µM, first compound 94.9 pM): 96.1%
viability, T/C (second compound 3 µM, first compound 0.0003 µM): 96.3%
viability, T/C (second compound 3 µM, first compound 0.000949 µM): 87.2%
viability, T/C (second compound 3 µM, first compound 0.003 µM): 84.4%
viability, T/C (second compound 3 µM, first compound 0.00949 µM): 72%
viability, T/C (second compound 3 µM, first compound 0.03 µM): 57%
viability, T/C (second compound 9.49 µM, first compound 94.9 pM): 88%
viability, T/C (second compound 9.49 µM, first compound 0.0003 µM): 99%
viability, T/C (second compound 9.49 µM, first compound 0.000949 µM): 90.3%
viability, T/C (second compound 9.49 µM, first compound 0.003 µM): 79.5%
viability, T/C (second compound 9.49 µM, first compound 0.00949 µM): 72.3%
viability, T/C (second compound 9.49 µM, first compound 0.03 µM): 62.7%
viability, T/C (second compound 30 µM, first compound 94.9 pM): 91.4%
viability, T/C (second compound 30 µM, first compound 0.0003 µM): 90.3%
viability, T/C (second compound 30 µM, first compound 0.000949 µM): 87.1%
viability, T/C (second compound 30 µM, first compound 0.003 µM): 80.6%
viability, T/C (second compound 30 µM, first compound 0.00949 µM): 69.1%
viability, T/C (second compound 30 µM, first compound 0.03 µM): 53.6%

CC(C)CC(NC(=O)CNC(=O)c1cc(Cl)ccc1Cl)B1OC(=O)CC(CC(=O)O)(C(=O)O)O1 (stereo not given) + CC(C)NCC(C(=O)N1CCN(c2ncnc3c2C(C)CC3O)CC1)c1ccc(Cl)cc1
IC50 (second compound 0.3 µM): > 100 nM
IC50 (second compound 0.949 µM): > 100 nM
IC50 (second compound 3 µM): > 100 nM
IC50 (second compound 9.49 µM): > 100 nM
IC50 (second compound 30 µM): > 100 nM
viability, T/C (second compound 0.3 µM, first compound 0.000316 µM): 117%
viability, T/C (second compound 0.3 µM, first compound 0.001 µM): 107%
viability, T/C (second compound 0.3 µM, first compound 0.00316 µM): 106%
viability, T/C (second compound 0.3 µM, first compound 0.01 µM): 101%
viability, T/C (second compound 0.3 µM, first compound 0.0316 µM): 88.8%
viability, T/C (second compound 0.3 µM, first compound 0.1 µM): 80.5%
viability, T/C (second compound 0.949 µM, first compound 0.000316 µM): 98.3%
viability, T/C (second compound 0.949 µM, first compound 0.001 µM): 102%
viability, T/C (second compound 0.949 µM, first compound 0.00316 µM): 99%
viability, T/C (second compound 0.949 µM, first compound 0.01 µM): 105%
viability, T/C (second compound 0.949 µM, first compound 0.0316 µM): 86.9%
viability, T/C (second compound 0.949 µM, first compound 0.1 µM): 72.6%
viability, T/C (second compound 3 µM, first compound 0.000316 µM): 116%
viability, T/C (second compound 3 µM, first compound 0.001 µM): 98.9%
viability, T/C (second compound 3 µM, first compound 0.00316 µM): 95.4%
viability, T/C (second compound 3 µM, first compound 0.01 µM): 98.5%
viability, T/C (second compound 3 µM, first compound 0.0316 µM): 83.5%
viability, T/C (second compound 3 µM, first compound 0.1 µM): 80.7%
viability, T/C (second compound 9.49 µM, first compound 0.000316 µM): 91.4%
viability, T/C (second compound 9.49 µM, first compound 0.001 µM): 123%
viability, T/C (second compound 9.49 µM, first compound 0.00316 µM): 97.2%
viability, T/C (second compound 9.49 µM, first compound 0.01 µM): 95.2%
viability, T/C (second compound 9.49 µM, first compound 0.0316 µM): 78.1%
viability, T/C (second compound 9.49 µM, first compound 0.1 µM): 85.7%
viability, T/C (second compound 30 µM, first compound 0.000316 µM): 93.8%
viability, T/C (second compound 30 µM, first compound 0.001 µM): 99.1%
viability, T/C (second compound 30 µM, first compound 0.00316 µM): 90.6%
viability, T/C (second compound 30 µM, first compound 0.01 µM): 90.4%
viability, T/C (second compound 30 µM, first compound 0.0316 µM): 81.3%
viability, T/C (second compound 30 µM, first compound 0.1 µM): 71.7%
